Results published in patent US10639287B2, “Compounds for the treatment of mitochondrial diseases” (UNIVERSITE PARIS-SUD, priority 2014, dated 2020).

Legend:
[1] = system: MIP1 yeast mutants; test: Fidelity of Mip1 polymerase: frequency of cells resistant to erythromycin (Ery^R); assay type: cell-based, Saccharomyces cerevisiae; details: 32 μM vs DMSO
From the text: A disruption of the fidelity of the Mip1 mitochondrial polymerase can be evaluated by measuring the frequency of cells resistant to erythromycin (Ery^R). The Ery^R mutations are caused by mutations in the 21S mitochondrial ribosomal RNA encoded by mtDNA that may occur after incorporation of a bad nucleotide (Baruffini, E., Lodi, T., Dallabona, C., Puglisi, A., Zeviani, M. and Ferrero, I. (2006) Genetic and Chemical rescue of the Saccharomyces cerevisiae phenotype induced by mitochondrial DNA polymerase mutations associated with progressive external ophthalmoplegia in humans. Hum. Mol. Genet., 15, 2846-2855). Measuring the resistance to erythromycin is one way to directly measure the point mutations of mtDNA.
Independent colonies were seeded in 10 mL of minimal medium (SC-TRP, 2% glucose) in the presence of 32 μM clofilium tosylate or DMSO to stationary phase. […] The mutation frequency was calculated as the number of Ery^R colonies among the total number of colonies (Baruffini, E., Lodi, T., Dallabona, C., Puglisi, A., Zeviani, M. and Ferrero, I. (2006) Genetic and Chemical rescue of the Saccharomyces cerevisiae phenotype induced by mitochondrial DNA polymerase mutations associated with progressive external ophthalmoplegia in humans. Hum. Mol. Genet., 15, 2846-2855).

[2] = system: neuronal cybrids derived from a MELAS patient (m.3243A>G tRNA^Leu mutation); test: Lactate production of MELAS neuronal cybrids; assay type: cell-based, human; details: 300 nM, 48 hours
Protocol: The increase in the lactate production is the result of a toxicity of the drug used, but also of a mitochondrial dysfunction (energy deficiency) present in MELAS syndrome.
Neuronal cybrid lines carrying the MELAS mutation and the parental control line were grown in sterile culture flasks and incubated at 37° C. with 5% CO2 in a medium composed of DMEM with 1.5 g/L glucose, 2 mM L-glutamine and supplemented with 10% foetal bovine serum as well as uridine (5 μg/ml) and pyruvate (10 μg/mL). The cells were harvested by trypsinisation in exponential phase and were used for subsequent biochemical or molecular mitochondrial analyses.
The MELAS neuronal cybrid line carrying the mutation seemingly in the homoplasmic state (i.e. reaching almost 100% MELAS mutation) and the SHSY-5Y parental control line were used for measurements of enzyme activities. […] These cell pellets were then analysed by spectrophotometry with measurement of the different mitochondrial biochemical activities, particularly the activity of citrate synthase and the activity of complex I of the respiratory chain. […]
The lactate concentration of the culture medium for neuronal cybrid and parental cells was determined by spectrophotometry using an enzymatic kit (Bohringer) on a Hitachi-Roche apparatus (Roche Diagnostics GmbH). […]

[3] = system: polg-1(ok1458Δ/+) strain; test: Non-toxic concentration (MIC) in nematode, larval development over 4 days, polg-1 mutated line; assay type: in vivo, Caenorhabditis elegans; details: 1 μM to 50 μM
Protocol: A series of NGM dishes containing clofilium tosylate at concentrations of 1 μM, 5 μM, 10 μM, 50 μM, 100 μM or 200 μM were prepared (three dishes for each concentration). Between 30 and 40 synchronised L1 larvae of the wild-type N2 BRISTOL line or mutated VC1224 line (polg-1(ok1458Δ/+)/mT1 II; +/mT1 [dpy-10(el28)] II), these being nematodes carrying a heterozygous deletion of 2149 bp in the sequence encoding the polg-1 gene, were deposited on each of these dishes.

`CCCCCCC[N+](CC)(CC)CCCCc1ccc(Cl)cc1.Cc1ccc(S(=O)(=O)[O-])cc1` [clofilium tosylate] was tested, and the “fidelity of the different MIP1 yeast mutants (Ery^R frequency)” value [1] was “no effect”, the production of lactate [2] was “without increasing” and the larval development [3] was “developed similarly”.
